Source: patent publication US20100160391A1, “Substituted Aminopyridines as Fluorescent Reporters for Amide Hydrolases” (priority 2006, published 2010)
Marks after values point to notes of the source that are not given here.

Assays:
[1] = Molar extinction coefficient of fluorescent reporters; format: physicochemical; settings: H2O containing 1% ethanol, 290 nm, 30° C., 10-50 μM
Procedure: Molar extinction coefficient. According to Beer's law, Aλ=ε*C*L, where Aλ is the absorbance at wavelength (λ nm); ε is called the molar extinction coefficient; L is the width of the sample cuvette; and C is the concentration of the solute. In this example, a series of concentrations falling between 10 and 50 μM (final concentration) for each fluorescent reporter was used for determination of the molar extinction coefficient. Assays were performed in a quartz cuvette (1 cm optical passage). 10 μl of a stock solution of a reporter in ethanol (1, 2, 3, 4, or 5 mM) was added to 990 μl H2O. The resulting mixture was degassed by sonication with ultrasonic cleaner Model 750 (VWR International; Wester, Pa.) for 10 seconds at a power level of 9. Measurements were performed with a Spectra Max M2 spectrophotometer (Molecular Devices; Sunnyvale, Calif.) at a wavelength of 290 nm. A slope (or extinction coefficient) was obtained by using an average absorbance of triplicate samples.

[2] = Maximal excitation and emission wavelengths; format: physicochemical; settings: 50 μM in 0.1 M phosphate buffer, 30° C.; SD ±2 nm
Procedure: Maximal excitation and emission wavelengths. A stock solution in ethanol of each compound (10 μl, 5 mM) was added to 990 μl of sodium phosphate buffer (0.1 M, pH 8.0, final substrate concentration 50 μM) in a 1-cm quartz cuvette. The quartz cuvette was scanned from 200 to 500 nm for absorption spectra with a Spectra Max M2 spectrophotometer. Maximal excitation and emission wavelengths were obtained from scanning from 250 to 600 nm and 360 to 600 nm by a 2 nm interval at 30° C., respectively.

[3] = Fluorescence quantum yield; format: physicochemical; settings: 10 μM, 1% ethanol in water, excitation 290 nm, standard 3-aminopyridine; SD under ±5%
Procedure: Quantum yield. The fluorescence quantum yield, φf, was calculated according to the following equation:
ØF=Østd*(I/Istd)*(ODstd/OD)*(n/nstd)^2,
wherein ØF is the quantum yield of the tested fluorescent reporter; Østd is the fluorescence quantum yield of the standard; I and Istd are the integrated emission intensities of the sample and the standard, respectively; OD and ODstd are the absorbance of the sample and standard, respectively, at the desired wavelength λex; and n and nstd are the indexes of refraction of the sample and standard solutions, respectively (Horspool and Song (Eds.), CRC Handbook of Organic Photochemistry I, pp 234-235, CRC Press, Boca Raton, Fla., 1995).
In this example, 3-aminopyridine in water at the maximal excitation wavelength of 290 nm was used as a standard (Østd=0.32, εmax=2800 M^−1 cm^−1) (see, e.g., Weisstuch et al., J. Phys. Chem., 72:1982-1987 (1968)). In order to minimize inner filter effects, the optical densities of samples at the excitation wavelength (λ=290 nm) were kept in the range of 0.095-0.13 (less than 0.150-0.165). The final concentration of each tested sample in a quartz cuvette was 10 μM with 1% ethanol in water, same as that for the standard. The integrated area of fluorescent intensity for the standard or the samples was based on the area between 360 and 500 nm. The difference of the index of refraction between the standard and the sample was neglected because (1) all measurements were performed in the same quartz cuvette and spectrofluorimeter; (2) the final concentrations of the sample and the standard were the same; and (3) the structures of the sample and standard were very similar, i.e., only one pyridine ring. The quantum yields presented in Table 1 were based on calculation of the average of OD and integrated fluorescent intensities of triplicates. The standard deviation for each quantum yield was less than ±5%.

[4] = biological target: T1, L-Leucine aminopeptidase from porcine kidney microsomes (Sus scrofa, UniProt P15145); assay: Sensitivity of L-Leucine aminopeptidase toward colorimetric and fluorescent substrates; format: biochemical; settings: for base line, Average: 0 min; for base line, Average / signal, Average: 25 μM; for signal, Average: 10 min; for Protein, lowest detection limit of L-Leucine aminopeptidase (signal at 10 min ≥ 3 times base line): substrate 25 μM
T1 construct: purchased Sigma-Aldrich L5006; host or cells: porcine kidney microsomes
T1 sequence (P15145 1-963): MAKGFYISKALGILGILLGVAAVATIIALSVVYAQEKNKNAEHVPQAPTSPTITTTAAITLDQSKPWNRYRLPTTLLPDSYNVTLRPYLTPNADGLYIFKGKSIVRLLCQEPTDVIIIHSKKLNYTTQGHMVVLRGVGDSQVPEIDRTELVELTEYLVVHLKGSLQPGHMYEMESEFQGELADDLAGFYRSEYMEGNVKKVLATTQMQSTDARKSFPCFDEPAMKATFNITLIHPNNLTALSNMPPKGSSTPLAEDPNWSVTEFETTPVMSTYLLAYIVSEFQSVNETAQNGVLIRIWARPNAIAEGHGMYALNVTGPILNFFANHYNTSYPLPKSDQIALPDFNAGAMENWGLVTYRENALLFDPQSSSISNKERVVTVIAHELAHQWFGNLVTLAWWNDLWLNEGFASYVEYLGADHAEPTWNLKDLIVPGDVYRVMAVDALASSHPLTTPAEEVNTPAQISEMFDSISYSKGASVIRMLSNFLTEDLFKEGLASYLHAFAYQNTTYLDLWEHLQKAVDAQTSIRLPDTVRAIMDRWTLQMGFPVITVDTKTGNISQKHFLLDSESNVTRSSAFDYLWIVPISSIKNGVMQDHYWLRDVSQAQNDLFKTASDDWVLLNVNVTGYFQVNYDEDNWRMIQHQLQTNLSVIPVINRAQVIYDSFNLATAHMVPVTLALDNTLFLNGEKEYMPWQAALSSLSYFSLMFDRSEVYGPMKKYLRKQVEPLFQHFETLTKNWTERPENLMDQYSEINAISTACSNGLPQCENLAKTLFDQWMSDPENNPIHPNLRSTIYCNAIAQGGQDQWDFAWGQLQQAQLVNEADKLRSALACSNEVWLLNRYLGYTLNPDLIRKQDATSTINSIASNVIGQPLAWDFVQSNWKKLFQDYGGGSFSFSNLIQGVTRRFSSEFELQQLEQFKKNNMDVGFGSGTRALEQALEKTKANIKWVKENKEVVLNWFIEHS
Procedure: Comparison of the sensitivities of L-Leucine aminopeptidase toward colorimetric and fluorescent substrates. In general, all assays were performed in 96-well styrene flat-bottom microtiter plates using a Spectra Max M2 spectrophotometer at 37° C. for 10 min. The total volume of each well was 201 μl containing 0.1 M sodium phosphate buffer (190 μl, pH 7.2), stock or diluted protein solution (10 μl), and 5 mM of the substrate solution (1 μl) in either ethanol for substrates (18) and (19). The lowest detection limit of microsomal L-Leucine aminopeptidase by substrates was determined by the fact that the signal at 10 min was equal to or over 3 times the basal line at 0 min. Colorimetric substrates assays (e.g., (20)) were performed in clear 96-well microtititer plates using an absorbance wavelength of 382 nm. The fluorescent substrates containing 5-amino-2-methoxypyridine (e.g., (19)) were measured at an excitation wavelength (302 nm), emission wavelength (396 nm), and auto cutoff wavelength (325 nm). Similarly, the fluorescent substrates containing 5-amino-2-methoxy-6-methylpyridine (e.g., (18)) were measured at an excitation wavelength (304 nm), emission wavelength (392 nm), and auto cutoff wavelength (325 nm).

[5] = pH 7.2, 37° C., protein 1.97 (18), 0.018 (19) μg/well
[6] = absorbance 382 nm, protein 1.97 μg/well

Row | Structure (SMILES) | εmax, molar extinction coefficient [1] | Em, maximal emission wavelength [2] | Ex, maximal excitation wavelength [2] | ØF, fluorescence quantum yield [3] | Protein, lowest detection limit of L-Leucine aminopeptidase (signal at 10 min ≥ 3 times base line) ([4]; pH 7.2, 37° C.) | other results
1 | COc1ncccc1N [Compound 7, 3-amino-2-methoxypyridine] | 4670 M⁻¹ cm⁻¹ | 378 nm | 284 nm | 0.27 | – | –
2 | COc1ccc(N)c(C)n1 [Compound 8, 3-amino-6-methoxy-2-picoline] | 4130 M⁻¹ cm⁻¹ | 392 nm | 304 nm | 0.97 | – | –
3 | Cc1ccncc1N [Compound 2, 3-amino-4-methylpyridine] | 2580 M⁻¹ cm⁻¹ | 376 nm | 280 nm | 0.53 | – | –
4 | COc1ccc(NC(=O)[C@@H](N)CC(C)C)cn1 [Compound 19, N-(6-methoxypyridin-3-yl), (S)-2-amino-4-methylpentanamide] | – | – | – | – | 0.018 μg/200 μL | base line, Average [4, 5]: 67 RFU/sec; signal, Average [4, 5]: 228* RFU/sec; times more sensitive than substrate (20) ([4]; Table 5): at least 100 times
5 | Cc1ccc(N)cn1 [Compound 3, 3-amino-6-methylpyridine] | 2700 M⁻¹ cm⁻¹ | 384 nm | 290 nm | 0.62 | – | –
6 | Nc1cccnc1F [Compound 4, 3-amino-2-fluoropyridine] | 3670 M⁻¹ cm⁻¹ | 374 nm | 282 nm | 0.04 | – | –
7 | CC(C)C[C@H](N)C(=O)Nc1ccc([N+](=O)[O-])cc1 [Compound 20, L-Leucine-p-nitroanilide] | – | – | – | – | 1.97 μg/200 μL | base line, Average [4, 6]: 0.08 OD; signal, Average [4, 6]: 0.24* OD
8 | Nc1ccc(F)nc1 [Compound 5, 5-amino-2-fluoropyridine] | 2360 M⁻¹ cm⁻¹ | 384 nm | 292 nm | 0.72 | – | –
9 | COc1ccc(NC(C)=O)c(C)n1 [Compound 11, N-(6-methoxy-2-methylpyridin-3-yl) acetamide] | – | – | – | – | – | melting point: 130.1 to 130.4 °C
10 | COc1ccc(NC(=O)[C@@H](N)CC(C)C)c(C)n1 [Compound 18, N-(6-methoxy-2-methylpyridin-3-yl), (S)-2-amino-4-methylpentanamide] | – | – | – | – | 1.97 μg/200 μL | base line, Average [4, 5]: 164 RFU/sec; signal, Average [4, 5]: 494* RFU/sec
